Tests used:
[1] = test system: HIV-1JRFL; assay: HIV-1JRFL infection of monocyte-derived macrophages, p24 ELISA; format: cell-based; details: for concentration at which significant inhibition of infection was exhibited (as low as): HIV-1JRFL, monocyte-derived macrophages; for inhibition of HIV-1JRFL infection of monocyte-derived macrophages (p24): peptide 1 hr before virus, p24 after 72 hr, FIG. 3
Method: Monocyte-derived macrophages were treated with the designated concentrations of the indicated peptide for a period of 1 hr prior to addition of HIV-1JRFL. After 2 hr, cells were washed, and viral replication was determined after 72 hr by p24 analysis. Results are representative of 4 independent experiments.
(§1) PBMCs were obtained from whole blood of normal donors and isolated by Ficoll-Paque Plus (Pharmacia Biotech, Piscataway, N.J.) density gradient centrifugation, and plated at a cell density of 2×10^6 cells/ml. Monocyte-derived macrophages (MDM) were generated from adherent human peripheral blood mononuclear cells by culture for 7 days with M-CSF (100 ng/ml). Cultures were maintained in RPMI-1640 medium (Life Technologies, Rockville, Md.) supplemented with 10% heat-inactivated endotoxin-free FCS (Hyclone, Logan, Utah), 10 μg/ml gentamicin, and 1 mM glutamine. Cells were treated with designated concentrations of the exemplary peptides 15K or 15D, and after 1 hr cells were infected with HIV-1IIIB (T cell tropic) or HIV-1JRFL (monocyte tropic) at an multiplicity of infection (MOI) of 0.1. After 2 hr, cells were washed, and cultured for additional 48-72 hr, followed by analysis of HIV replication as determined by quantification of accumulated p24 in the supernatant. The production of p24 was determined by conventional sandwich ELISA, using ELISA plates pre-coated with capture anti-p24 antibodies provided by the AIDS Vaccine Program (SAIC Frederick, NCI-FCRDC, Frederick, Md.). The captured p24 antigen was detected using rabbit anti-HIV-1 anti-p24 antibody, and a secondary goat anti-rabbit IgG (peroxidase-labeled) antibody. The captured p24 protein was detected using a 3,3′,5,5′-tetramethylbenzidine and hydrogen peroxide detection system (KPL Laboratories, Gaithersburg, Md.). The reaction was read spectrophotometrically at 450 nm. No cytotoxicity was detectable following treatment of PBMC with the peptides even at a concentration of 100 μg/ml.
The results described in the preceding Examples indicate that the 15K and 15D peptides effectively block the ability of CCR5 to serve as a receptor to mediate chemotactic responses. Additional experiments were thus carried out to determine the capacity of these peptides to inhibit coreceptor activity mediating cellular entry and infection by HIV-1JRFL (a monocyte-tropic HIV strain), using peripheral blood monocyte-derived macrophages.

[2] = test system: HIV-1IIIB; assay: HIV-1IIIB infection of PBMC, p24 ELISA; format: cell-based; details: for concentration at which significant inhibition of HIV-1 infection was detected (as low as): HIV-1IIIB, PBMC; for inhibition of T cell-tropic HIV-1 infection of PBMCs (p24): peptide 1 hr before HIV-1IIIB, p24 after 48 hr, FIG. 4
Method: Peripheral blood mononuclear cells were treated with designated concentrations of peptide for a period of 1 hr prior to addition of HIV-1IIIB. After 2 hr, cells were washed, and viral replication was determined after 48 hr by analysis of p24 levels. Results are representative of 4 independent experiments.
as §1
In view of the foregoing binding inhibition studies, and considering the homology between the 15K and 15D peptides and the CXCR4 ligand SDF-1α, it was further undertaken to determine the capacity of the synthetic peptides to inhibit CXCR4 co-receptor function. In particular, experiments were carried out to assess the ability of 15K or 15D to alter the infection of PBMCs with the T cell-tropic […] strain. […] Significant inhibition of HIV-1 infection was detected with concentrations of peptides as low as 10 ng/ml.

[3] = target: CXCR4 (Homo sapiens, UniProt P61073); assay: Competition with radiolabeled SDF-1α binding to HEK-CXCR4 cells; design: host or cells: CEMx174 (174xCEM); details: high concentrations (e.g., 100 μM) of peptide required, FIG. 1
Chain of CXCR4 (P61073 whole entry): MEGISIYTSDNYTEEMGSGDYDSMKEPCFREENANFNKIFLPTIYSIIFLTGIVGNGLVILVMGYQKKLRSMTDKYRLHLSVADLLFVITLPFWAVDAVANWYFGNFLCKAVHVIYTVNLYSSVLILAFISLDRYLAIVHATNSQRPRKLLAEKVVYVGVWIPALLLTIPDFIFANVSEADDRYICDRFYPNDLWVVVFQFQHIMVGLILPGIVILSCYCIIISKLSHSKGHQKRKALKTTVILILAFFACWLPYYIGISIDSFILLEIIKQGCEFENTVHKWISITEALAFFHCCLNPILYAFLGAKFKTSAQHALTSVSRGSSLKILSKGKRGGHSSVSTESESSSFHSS
Method: (§2) Binding assays were performed with HEK-CCR5 or HEK CXCR4 in triplicate by adding unlabeled competitor (anti-coreceptor binding peptide or control chemokine) and radiolabeled chemokine, 0.2 ng/ml (^125I-MIP-1β or SDF-1α, specific activity 2000 Ci/mmol, NEN Life Science Products) to a cell suspension (4×10^5 cells in 200 μl) in RPMI 1640 supplemented with 1% bovine serum albumin and 25 mM HEPES pH 8.0 (binding medium). Cells were then incubated at 22° C. for 40 min with continuous rotation. After incubation cells were transferred to the tubes containing 800 μl of 10% sucrose in PBS and harvested by centrifugation. The supernatant was aspirated and the cell-associated radioactivity was measured using a 1272 Wallac gamma counter. […] After incubation cells were transferred to the tubes containing 800 μl of 10% sucrose in PBS and harvested by centrifugation, the supematant was aspirated and the cell-associated radioactivity was measured using a 1272 Wallac gamma counter. The data were analyzed by nonlinear regression using the computer program GraphPad Prizm 3.0.
(§3) Considering that the 15K and 15D peptides were designed in part based on their structural similarity to corresponding chemokine fragments, the binding activity of these peptides for CCR5 and/or CXCR4 receptors, and corresponding anti-coreceptor binding activity against chemokines, was assessed.

[4] = target: T1, CCR5 (Homo sapiens, UniProt P51681); assay: Competition with 125I-MIP-1β binding to SupT1/CCR5 cells; design: expressed in transfected cells; host or cells: Sup-T1; details: room temperature, 0.1% sodium azide, FIG. 7A
T1 sequence (P51681 whole entry): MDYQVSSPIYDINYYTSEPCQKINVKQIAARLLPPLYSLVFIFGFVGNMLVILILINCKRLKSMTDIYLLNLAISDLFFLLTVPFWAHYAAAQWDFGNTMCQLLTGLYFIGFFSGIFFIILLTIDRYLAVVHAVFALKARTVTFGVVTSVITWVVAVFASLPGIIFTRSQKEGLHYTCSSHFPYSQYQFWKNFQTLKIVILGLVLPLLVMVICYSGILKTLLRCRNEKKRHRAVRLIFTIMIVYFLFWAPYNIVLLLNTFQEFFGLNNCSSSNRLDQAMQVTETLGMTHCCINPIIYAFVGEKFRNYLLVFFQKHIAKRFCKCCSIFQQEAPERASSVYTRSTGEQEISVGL
Method: FIGS. 7A through 7C depicts the inhibition of chemokine receptor ligand binding by peptide pre-treatment. FIG. 7A. Effect of pre-treatment with peptides 15K and 15D on the binding of MIP-1β to SupT1/CCR5 cells; FIG. 7B. Effect of pre-treatment with peptides 15K and 1SD on the binding of SDF-1α to CEMx174 cells; and FIG. 7C. Effect of pre-treatment with 15K and control peptide 15GIG on the binding of SDF-1α to CEmx174 cells. Binding studies were performed as described in Materials and Methods.
as §2, with “Cells were then incubated at 22° C. for 40 min with continuous rotation. After incubation cells were transferred to the tubes containing 800 μl of 10% sucrose in PBS and harvested by centrifugation.” left out, “3.0. […]” for “3.0.”

[5] = target: T1, CCR5; assay: Competition with 125I-MIP-1β binding to HEK-CCR5 cells; design: expressed in transfected cells; host or cells: HEK-293; details: high concentrations (e.g., 100 μM) of peptide required, FIG. 1
Method: as §2, §3

| Substance | concentration at which significant inhibition of infection was exhibited (as low as) [1] [ng/mL] | inhibition of HIV-1JRFL infection of monocyte-derived macrophages (p24) [1] | concentration at which significant inhibition of HIV-1 infection was detected (as low as) [2] [ng/mL] | inhibition of T cell-tropic HIV-1 infection of PBMCs (p24) [2] | anti-HIV-1 activity of 15D in comparison with 15K ([2]; some experiments, data not shown, virus strain not stated) | inhibition of radiolabeled SDF-1α binding to cells expressing CXCR4 [3] | inhibition of MIP-1β binding to CCR5 [4] | inhibition of radiolabeled MIP-1β binding to cells expressing CCR5 [5] |
| --- | --- | --- | --- | --- | --- | --- | --- | --- |
| I R K A H C N I S R A D W N D [Peptide 15D] | 10 | significantly reduced monocyte lineage target cell infection | 10 | significantly reduced HIV-1 infection | higher anti-HIV-1 activity | significantly inhibit chemokine binding | competitively inhibited chemokine binding | significantly inhibit chemokine binding |
| IRKAHCNISRAKWND [Peptide 15K] | 10 | significantly reduced monocyte lineage target cell infection | 10 | significantly reduced HIV-1 infection |  | significantly inhibit chemokine binding | competitively inhibited chemokine binding | significantly inhibit chemokine binding |

Source: patent publication US20060116325A1, “Methods and compositions for inhibiting hiv-coreceptor interactions” (priority 2001, published 2006)
